Source: patent US10670605B2, “Cysteine reactive probes and uses thereof” (The Scripps Research Institute, priority 2015, dated 2020)

Tests used:
[1] = biological target: cysteines in MDA-MB-231 and Ramos cells (Homo sapiens, UniProt Q92616); test: Competitive isoTOP-ABPP in situ (fragment-treated cells); type: cell-based; conditions: 200 μM, insitu
[2] = biological target: T1, cysteines in MDA-MB-231 and Ramos cells (Homo sapiens, UniProt Q9HA64); test: as above; type: cell-based
T1 sequence (Q9HA64 1-309): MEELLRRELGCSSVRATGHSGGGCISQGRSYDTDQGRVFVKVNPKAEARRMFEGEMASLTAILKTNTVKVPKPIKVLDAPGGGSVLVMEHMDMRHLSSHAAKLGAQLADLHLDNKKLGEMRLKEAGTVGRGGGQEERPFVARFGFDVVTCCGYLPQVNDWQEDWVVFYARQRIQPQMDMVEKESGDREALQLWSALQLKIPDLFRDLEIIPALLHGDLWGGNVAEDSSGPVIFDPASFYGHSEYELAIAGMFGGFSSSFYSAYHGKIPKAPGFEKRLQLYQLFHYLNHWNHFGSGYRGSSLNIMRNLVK

WT-IDH1 (C269) = biological target: T2, WT-IDH1 (C269) (Homo sapiens, UniProt O75874); test: Blockade of IA-rhodamine labeling of WT-IDH1; type: binding; conditions: 2 μM protein in MDA-MB-231 lysate
T2 construct: Full length cDNAs encoding for IDH1 (Open Biosystems, Clone ID: 3880331) and IMPDH2; His6 (C); made in house; host or cells: E. coli BL21(DE3)
T2 sequence (O75874 whole entry): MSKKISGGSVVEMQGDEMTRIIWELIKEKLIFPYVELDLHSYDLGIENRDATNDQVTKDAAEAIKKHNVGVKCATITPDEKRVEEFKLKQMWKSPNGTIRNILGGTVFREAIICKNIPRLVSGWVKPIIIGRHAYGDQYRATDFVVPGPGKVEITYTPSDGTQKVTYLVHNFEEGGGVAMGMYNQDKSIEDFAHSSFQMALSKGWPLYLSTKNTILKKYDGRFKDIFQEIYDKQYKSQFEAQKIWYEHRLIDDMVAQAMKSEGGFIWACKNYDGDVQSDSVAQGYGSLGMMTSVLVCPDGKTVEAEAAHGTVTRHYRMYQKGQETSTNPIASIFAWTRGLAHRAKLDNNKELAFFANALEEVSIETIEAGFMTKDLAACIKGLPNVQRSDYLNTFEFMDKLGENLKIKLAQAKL

ACO2 C385 (Q99798) = ACO2 C385 (Q99798) (Homo sapiens, UniProt Q99798); test: Competitive isoTOP-ABPP in situ; type: cell-based; conditions: MDA-MB-231 cells
USP16 C205 (Q9Y5T5) = USP16 C205 (Q9Y5T5) (Homo sapiens, UniProt Q9Y5T5); test: Competitive isoTOP-ABPP in situ; type: cell-based; conditions: MDA-MB-231 cells
Sequence of USP16 C205 (Q9Y5T5) (Q9Y5T5 whole entry, one chain of several): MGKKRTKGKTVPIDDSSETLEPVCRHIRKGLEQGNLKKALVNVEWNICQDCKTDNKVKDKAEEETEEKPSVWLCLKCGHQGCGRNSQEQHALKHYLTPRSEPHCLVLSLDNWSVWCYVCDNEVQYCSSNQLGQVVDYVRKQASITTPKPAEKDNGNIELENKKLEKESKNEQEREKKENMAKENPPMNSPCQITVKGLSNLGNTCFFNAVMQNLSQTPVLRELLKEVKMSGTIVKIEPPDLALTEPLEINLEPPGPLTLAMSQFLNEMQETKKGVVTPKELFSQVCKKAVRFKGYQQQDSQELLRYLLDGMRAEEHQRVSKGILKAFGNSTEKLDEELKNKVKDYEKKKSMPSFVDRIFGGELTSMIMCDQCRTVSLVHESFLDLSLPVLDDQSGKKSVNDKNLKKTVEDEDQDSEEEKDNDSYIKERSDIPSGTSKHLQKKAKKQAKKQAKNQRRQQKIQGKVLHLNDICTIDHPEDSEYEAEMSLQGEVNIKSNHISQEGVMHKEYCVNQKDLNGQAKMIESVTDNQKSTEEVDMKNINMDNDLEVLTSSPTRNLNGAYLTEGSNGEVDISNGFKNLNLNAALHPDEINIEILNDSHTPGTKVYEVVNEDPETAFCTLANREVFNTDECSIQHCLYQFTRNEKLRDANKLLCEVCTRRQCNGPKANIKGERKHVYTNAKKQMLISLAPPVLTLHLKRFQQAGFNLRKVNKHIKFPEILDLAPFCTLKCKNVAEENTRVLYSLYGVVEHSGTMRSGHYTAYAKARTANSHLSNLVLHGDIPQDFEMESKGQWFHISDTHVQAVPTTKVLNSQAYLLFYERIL

PES1 C272 (O00541) = PES1 C272 (O00541) (Homo sapiens, UniProt O00541); test: Competitive isoTOP-ABPP, cell lysates; type: binding; conditions: 500 μM, invitro
Sequence of PES1 C272 (O00541) (O00541 whole entry, looked up, the tested form may be a part): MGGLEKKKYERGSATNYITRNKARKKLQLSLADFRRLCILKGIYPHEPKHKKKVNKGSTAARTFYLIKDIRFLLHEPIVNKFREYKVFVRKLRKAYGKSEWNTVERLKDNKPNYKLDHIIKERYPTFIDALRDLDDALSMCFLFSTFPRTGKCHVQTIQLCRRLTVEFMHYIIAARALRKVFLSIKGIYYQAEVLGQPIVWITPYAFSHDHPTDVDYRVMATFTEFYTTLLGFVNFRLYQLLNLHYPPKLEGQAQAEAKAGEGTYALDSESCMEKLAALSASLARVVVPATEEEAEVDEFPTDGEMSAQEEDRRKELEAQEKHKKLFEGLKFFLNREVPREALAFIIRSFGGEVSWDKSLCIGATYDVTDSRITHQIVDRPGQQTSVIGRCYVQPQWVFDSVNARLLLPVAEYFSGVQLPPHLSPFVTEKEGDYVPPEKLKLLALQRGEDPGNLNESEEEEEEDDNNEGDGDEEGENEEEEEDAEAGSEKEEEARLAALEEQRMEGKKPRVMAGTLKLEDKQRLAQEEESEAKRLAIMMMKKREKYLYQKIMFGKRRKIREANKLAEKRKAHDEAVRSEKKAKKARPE

[3] = biological target: cysteines in MDA-MB-231 and Ramos cells (Homo sapiens, UniProt O75150); test: Competitive isoTOP-ABPP in situ (fragment-treated cells); type: cell-based; conditions: 200 μM, insitu
Sequence of cysteines in MDA-MB-231 and Ramos cells (Homo sapiens, UniProt O75150) (O75150 whole entry, the tested form may be a part): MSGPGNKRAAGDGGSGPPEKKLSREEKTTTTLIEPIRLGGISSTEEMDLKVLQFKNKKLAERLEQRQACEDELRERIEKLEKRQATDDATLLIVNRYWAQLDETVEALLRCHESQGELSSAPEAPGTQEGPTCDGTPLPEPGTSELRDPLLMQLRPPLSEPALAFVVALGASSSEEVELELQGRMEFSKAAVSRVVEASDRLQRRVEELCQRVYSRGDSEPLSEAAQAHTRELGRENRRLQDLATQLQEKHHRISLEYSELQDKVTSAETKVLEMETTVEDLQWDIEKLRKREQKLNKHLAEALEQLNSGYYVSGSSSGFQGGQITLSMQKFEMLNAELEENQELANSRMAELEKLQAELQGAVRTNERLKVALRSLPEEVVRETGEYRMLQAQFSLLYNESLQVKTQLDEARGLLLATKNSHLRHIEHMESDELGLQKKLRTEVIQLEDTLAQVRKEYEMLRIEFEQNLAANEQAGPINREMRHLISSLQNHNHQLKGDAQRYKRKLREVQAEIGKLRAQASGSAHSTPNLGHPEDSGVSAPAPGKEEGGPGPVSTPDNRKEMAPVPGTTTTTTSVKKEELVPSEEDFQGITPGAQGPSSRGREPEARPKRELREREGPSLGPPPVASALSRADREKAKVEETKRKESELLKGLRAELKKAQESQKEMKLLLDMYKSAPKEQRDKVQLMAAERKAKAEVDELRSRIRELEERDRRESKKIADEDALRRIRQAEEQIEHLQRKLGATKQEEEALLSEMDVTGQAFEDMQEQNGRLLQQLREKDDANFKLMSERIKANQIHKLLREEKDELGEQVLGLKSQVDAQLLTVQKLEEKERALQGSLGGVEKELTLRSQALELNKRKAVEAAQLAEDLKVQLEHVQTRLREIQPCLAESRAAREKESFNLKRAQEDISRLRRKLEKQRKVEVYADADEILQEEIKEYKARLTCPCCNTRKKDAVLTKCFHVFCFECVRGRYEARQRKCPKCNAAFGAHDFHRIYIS

[4] = biological target: T3, cysteines in MDA-MB-231 and Ramos cells (Homo sapiens, UniProt Q9NUI1); test: as above; type: cell-based; conditions: for isoTOP-ABPP ratio Q9NUI1_C22: 200 μM, insitu, 231
T3 sequence (Q9NUI1 1-292): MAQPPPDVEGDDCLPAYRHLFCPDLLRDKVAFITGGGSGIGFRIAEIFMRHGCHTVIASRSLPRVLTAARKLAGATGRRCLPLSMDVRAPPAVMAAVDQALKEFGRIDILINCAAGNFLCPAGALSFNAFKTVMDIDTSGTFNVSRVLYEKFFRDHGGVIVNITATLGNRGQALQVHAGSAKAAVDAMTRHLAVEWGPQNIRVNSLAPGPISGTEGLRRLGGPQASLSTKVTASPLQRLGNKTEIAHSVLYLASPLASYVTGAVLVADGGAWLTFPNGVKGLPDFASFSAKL

O14933 C98 = O14933 C98 (Homo sapiens, UniProt O14933); test: Competitive isoTOP-ABPP, cell lysates; type: binding; conditions: 500 μM, invitro, ramos
Sequence of O14933 C98 (O14933 whole entry, the tested form may be a part): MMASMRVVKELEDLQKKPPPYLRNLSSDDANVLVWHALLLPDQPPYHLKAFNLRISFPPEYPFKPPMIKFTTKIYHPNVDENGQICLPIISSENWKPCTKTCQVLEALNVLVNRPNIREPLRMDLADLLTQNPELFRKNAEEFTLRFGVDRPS

[5] = biological target: T4, cysteines in MDA-MB-231 and Ramos cells (Homo sapiens, UniProt Q9GZR2); test: Competitive isoTOP-ABPP in situ (fragment-treated cells); type: cell-based; conditions: 200 μM, insitu
T4 sequence (Q9GZR2 1-422): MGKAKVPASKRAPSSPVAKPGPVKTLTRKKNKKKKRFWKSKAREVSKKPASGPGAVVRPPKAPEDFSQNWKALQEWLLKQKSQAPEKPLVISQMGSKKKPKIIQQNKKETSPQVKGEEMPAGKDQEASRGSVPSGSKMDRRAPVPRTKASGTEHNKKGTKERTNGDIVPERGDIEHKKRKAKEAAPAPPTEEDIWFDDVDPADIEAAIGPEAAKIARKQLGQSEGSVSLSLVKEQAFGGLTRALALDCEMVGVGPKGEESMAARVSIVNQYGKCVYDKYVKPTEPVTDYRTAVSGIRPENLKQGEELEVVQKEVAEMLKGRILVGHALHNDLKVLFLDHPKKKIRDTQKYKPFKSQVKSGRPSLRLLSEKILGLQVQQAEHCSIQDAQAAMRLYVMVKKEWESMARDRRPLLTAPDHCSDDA

[6] = biological target: cysteines in MDA-MB-231 and Ramos cells (Homo sapiens, UniProt Q00610); test: as above; type: cell-based; conditions: 200 μM, insitu, 231
Sequence of cysteines in MDA-MB-231 and Ramos cells (Homo sapiens, UniProt Q00610) (Q00610 whole entry): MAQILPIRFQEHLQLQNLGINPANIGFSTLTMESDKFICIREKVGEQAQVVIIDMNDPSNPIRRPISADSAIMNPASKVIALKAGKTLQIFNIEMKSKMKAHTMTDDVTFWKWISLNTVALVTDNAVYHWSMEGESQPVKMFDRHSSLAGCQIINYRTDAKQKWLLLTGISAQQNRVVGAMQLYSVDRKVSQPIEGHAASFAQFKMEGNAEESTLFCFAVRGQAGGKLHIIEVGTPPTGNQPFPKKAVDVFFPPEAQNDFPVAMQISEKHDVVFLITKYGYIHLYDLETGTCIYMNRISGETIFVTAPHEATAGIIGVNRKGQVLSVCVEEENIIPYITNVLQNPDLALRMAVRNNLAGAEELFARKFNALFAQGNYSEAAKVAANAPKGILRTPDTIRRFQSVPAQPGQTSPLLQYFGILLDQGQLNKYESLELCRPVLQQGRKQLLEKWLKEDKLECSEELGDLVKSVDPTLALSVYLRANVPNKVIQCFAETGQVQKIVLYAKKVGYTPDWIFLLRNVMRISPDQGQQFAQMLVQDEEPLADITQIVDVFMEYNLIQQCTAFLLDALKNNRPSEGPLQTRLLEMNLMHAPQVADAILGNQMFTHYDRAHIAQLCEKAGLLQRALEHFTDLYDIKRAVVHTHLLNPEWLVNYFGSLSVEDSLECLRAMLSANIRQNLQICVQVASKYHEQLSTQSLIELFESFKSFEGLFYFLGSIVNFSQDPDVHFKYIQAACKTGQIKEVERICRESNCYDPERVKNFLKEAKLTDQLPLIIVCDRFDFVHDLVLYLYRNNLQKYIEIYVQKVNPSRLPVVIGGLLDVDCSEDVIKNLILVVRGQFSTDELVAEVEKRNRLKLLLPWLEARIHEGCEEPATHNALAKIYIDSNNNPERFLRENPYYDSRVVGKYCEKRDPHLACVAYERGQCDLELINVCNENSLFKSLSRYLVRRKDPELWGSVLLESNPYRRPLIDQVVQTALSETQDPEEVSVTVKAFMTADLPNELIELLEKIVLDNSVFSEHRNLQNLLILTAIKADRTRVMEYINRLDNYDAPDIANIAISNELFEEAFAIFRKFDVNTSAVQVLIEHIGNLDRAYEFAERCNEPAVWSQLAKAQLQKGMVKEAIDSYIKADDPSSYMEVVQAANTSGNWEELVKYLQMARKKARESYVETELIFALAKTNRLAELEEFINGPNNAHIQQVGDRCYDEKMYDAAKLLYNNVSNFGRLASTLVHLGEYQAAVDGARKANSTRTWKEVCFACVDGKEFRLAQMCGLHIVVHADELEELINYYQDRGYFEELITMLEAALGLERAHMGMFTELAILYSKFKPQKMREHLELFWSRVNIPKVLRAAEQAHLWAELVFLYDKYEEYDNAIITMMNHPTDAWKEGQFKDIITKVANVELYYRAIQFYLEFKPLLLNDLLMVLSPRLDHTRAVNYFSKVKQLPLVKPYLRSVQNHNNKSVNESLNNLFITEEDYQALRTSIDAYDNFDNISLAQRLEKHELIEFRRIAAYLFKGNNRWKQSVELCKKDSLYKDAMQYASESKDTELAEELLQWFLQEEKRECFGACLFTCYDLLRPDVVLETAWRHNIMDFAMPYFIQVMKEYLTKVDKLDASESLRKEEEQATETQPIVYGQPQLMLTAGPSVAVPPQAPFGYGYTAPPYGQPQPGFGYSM

[7] = biological target: cysteines in MDA-MB-231 and Ramos cells (Homo sapiens, UniProt Q9Y5T5); test: as above; type: cell-based; conditions: 200 μM, insitu
Sequence of cysteines in MDA-MB-231 and Ramos cells (Homo sapiens, UniProt Q9Y5T5) (Q9Y5T5 whole entry): as the sequence (Q9Y5T5 whole entry, one chain of several) above

[8] = biological target: T5, cysteines in MDA-MB-231 and Ramos cells (Homo sapiens, UniProt O95833); test: as above; type: cell-based; conditions: 200 μM, insitu, 231
T5 sequence (O95833 1-236): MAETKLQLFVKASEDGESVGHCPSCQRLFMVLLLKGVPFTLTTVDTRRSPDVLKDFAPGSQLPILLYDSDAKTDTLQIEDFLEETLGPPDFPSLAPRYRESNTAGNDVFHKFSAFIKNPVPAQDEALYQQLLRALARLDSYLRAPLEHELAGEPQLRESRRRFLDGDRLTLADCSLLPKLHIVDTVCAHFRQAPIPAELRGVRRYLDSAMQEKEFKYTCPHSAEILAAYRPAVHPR

[9] = biological target: cysteines in MDA-MB-231 and Ramos cells (Homo sapiens, UniProt Q8N999); test: as above; type: cell-based; conditions: 200 μM, insitu, 231
Sequence of cysteines in MDA-MB-231 and Ramos cells (Homo sapiens, UniProt Q8N999) (Q8N999 whole entry): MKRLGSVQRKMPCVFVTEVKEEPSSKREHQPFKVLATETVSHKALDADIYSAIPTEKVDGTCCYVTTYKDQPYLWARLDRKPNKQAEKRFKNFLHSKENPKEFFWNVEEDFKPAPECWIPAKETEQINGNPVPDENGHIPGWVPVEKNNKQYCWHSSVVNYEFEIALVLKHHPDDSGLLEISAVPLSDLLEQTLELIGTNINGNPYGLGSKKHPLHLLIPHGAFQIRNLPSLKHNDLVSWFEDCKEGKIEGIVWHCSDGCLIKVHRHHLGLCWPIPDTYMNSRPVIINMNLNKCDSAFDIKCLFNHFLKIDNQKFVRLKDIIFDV

In the case of `COc1ccc2c(c1)CCCN2C(=O)CCl` [compound 2], the “isoTOP-ABPP reactivity Q92616_C1692 GCN1L1” value [1]; 231 is reported as 1.4, the “isoTOP-ABPP reactivity Q9HA64_C24 FN3KRP” value ([2]; 200 μM, insitu, 231) is reported as 6.3 and the IC50 (WT-IDH1 (C269)) is reported as > 50000 nM. The “isoTOP-ABPP reactivity profile (ratio) 2_200 μM_in-situ_231” value (ACO2 C385 (Q99798); fragment 2 at 200 μM) was 20.0 and the “isoTOP-ABPP reactivity profile (ratio) 2_200 μM_in-situ_231” value (USP16 C205 (Q9Y5T5); fragment 2 at 200 μM) was 7.9.
With `COc1ccc(C2CC(c3cccs3)=NN2C(=O)CCl)cc1` (stereo not drawn) [compound 4] the “isoTOP-ABPP reactivity Q9HA64_C24 FN3KRP” value ([2]; 100 μM in situ 231) was 20.0, the “isoTOP-ABPP reactivity profile (ratio) 4_100 μM_in-situ_231” value (ACO2 C385 (Q99798); fragment 4 at 100 μM) was 1.0 and the “isoTOP-ABPP reactivity profile (ratio) 4_100 μM_in-situ_231” value (USP16 C205 (Q9Y5T5); fragment 4 at 100 μM) was 20.0.
With `C=CC(=O)N(c1ccccc1)c1ccc(Br)cc1` [compound 5] the “isoTOP-ABPP ratio, O00541_C272” value (PES1 C272 (O00541); ramos) was 12.3.
For `O=C(CCl)N1CCC(Cc2ccccc2)CC1` [compound 9], the “isoTOP-ABPP reactivity Q9HA64_C24 FN3KRP” value ([2]; 200 μM, insitu, 231) was 20.0.
With `O=C(CCl)N1CCN(S(=O)(=O)c2ccccc2F)CC1` [compound 10] the “isoTOP-ABPP ratio, cysteine O75150_C890” value ([3]; ramos) was 4.2 and the “isoTOP-ABPP ratio, O00541_C272” value (PES1 C272 (O00541); ramos) was 2.2.
With `Cn1cc(S(=O)(=O)N2CCOCC2)cc1C(=O)NC(=O)CCl` [compound 11] the “isoTOP-ABPP ratio, cysteine Q9NUI1_C22” value ([4]; 100 μM in situ 231) was 2.1, the “isoTOP-ABPP ratio, O00541_C272” value (PES1 C272 (O00541); ramos) was 4.2 and the “isoTOP-ABPP ratio O14933_C98” value (O14933 C98) was 3.4.
For `O=C(CCl)NC(=O)NC12CC3CC(CC(C3)C1)C2` [compound 12], the “isoTOP-ABPP ratio, cysteine Q9GZR2_C382” value [5]; 231 was 20.0, the “isoTOP-ABPP ratio, cysteine O75150_C890” value [3]; 231 was 1.1 and the “isoTOP-ABPP ratio, cysteine Q00610_C870” value [6] was 0.9. The “isoTOP-ABPP ratio O14933_C98” value (O14933 C98) was 1.3.
In the case of `O=C(CCl)NCCc1c[nH]c2ccccc12` [compound 13], the “isoTOP-ABPP ratio, cysteine Q9Y5T5_C205” value ([7]; ramos) is reported as 20.0, the “isoTOP-ABPP ratio, cysteine Q92616_C1692” value ([1]; ramos) is reported as 0.9 and the “isoTOP-ABPP ratio, cysteine Q9GZR2_C382” value ([5]; ramos) is reported as 0.9. The “isoTOP-ABPP ratio, cysteine Q00610_C870” value [6] was 1.7, the “isoTOP-ABPP ratio, O00541_C272” value (PES1 C272 (O00541); 231) was 1.7 and the “isoTOP-ABPP ratio O14933_C98” value (O14933 C98) was 1.0.
In the case of `O=C(CCl)N1CCC(C(O)(c2ccccc2)c2ccccc2)CC1` [compound 20], the IC50 (WT-IDH1 (C269)) is reported as 2900 nM.
With `O=C(CCl)NC12CC3CC(CC(C3)C1)C2` [compound 21] the “isoTOP-ABPP ratio, cysteine Q9Y5T5_C205” value [7]; 231 was 0.9, the “isoTOP-ABPP ratio, cysteine O95833_C22” value [8] was 1.0 and the “isoTOP-ABPP ratio, cysteine Q9HA64_C24” value ([2]; 200 μM, insitu, 231) was 0.6.
In the case of `CC(C)CCOCCNC(=O)CCl` [compound 27], the “isoTOP-ABPP ratio, Q9Y5T5_C205” value [7]; 231 is reported as 1.2, the “isoTOP-ABPP ratio Q92616_C1692” value [1]; 231 is reported as 0.5 and the “isoTOP-ABPP ratio O75150_C890” value [3]; 231 is reported as 1.2.
For `COc1ccccc1OCCNC(=O)CCl` [compound 28], the “isoTOP-ABPP ratio Q8N999_C302” value [9] was 0.6.
For `C=CC(=O)N(Cc1cccnc1)c1cc(C(F)(F)F)cc(C(F)(F)F)c1` [compound 31], the “isoTOP-ABPP ratio Q9NUI1_C22” value [4] was 0.7, the “isoTOP-ABPP ratio O95833_C22” value [8] was 0.5 and the “isoTOP-ABPP ratio Q92616_C1692” value [1]; 231 was 0.6. For the same molecule, the “isoTOP-ABPP ratio Q92616_C1692” value ([1]; ramos) was 2.0 and the “isoTOP-ABPP ratio O75150_C890” value [3]; 231 was 0.7.
With `C=CC(=O)Nc1cc(F)c(N2CCN(C(=O)OC(C)(C)C)CC2)c(F)c1` [compound 38] the “isoTOP-ABPP ratio, Q9Y5T5_C205” value [7]; 231 was 1.5, the “isoTOP-ABPP ratio Q00610_C870” value [6] was 20.0 and the “isoTOP-ABPP ratio Q9HA64_C24” value ([2]; 200 μM, insitu, 231) was 1.7.
`Cc1ccc(C=C(C#N)C(=O)NCCN2CCOCC2)cc1` [compound 41] was tested, and the “isoTOP-ABPP ratio Q8N999_C302” value [9] was 0.3, the “isoTOP-ABPP ratio Q92616_C1692” value [1]; 231 was 0.7 and the “isoTOP-ABPP ratio O75150_C890” value [3]; 231 was 1.3.
For `CC1CCc2ccccc2N1C(=O)CCl` (stereo not drawn) [compound 45], the “isoTOP-ABPP ratio Q8N999_C302” value [9] was 20.0, the “isoTOP-ABPP ratio Q9NUI1_C22” value [4] was 17.0 and the “isoTOP-ABPP ratio O95833_C22” value [8] was 13.8. The “isoTOP-ABPP ratio Q9GZR2_C382” value [5]; 231 was 20.0.
